Measurements as given in patent US20240051971A1, “INTRACELLULAR ATP ENHANCER” (School Juridical Person Higashi-Nippon-Gakuen, priority 2020, published 2024).
Where two headings read alike, the source gives them in different places.

Experiments:
[1] = Test Example 2b, absorbability of solid dispersion containing Compound 14 in rats; assay type: in vivo, rats (Crl:CD (SD)); settings: rat, single oral, 30 mg/kg as Compound 14, fasted
Description: A single dose of 10 mg/kg or 30 mg/kg, as Compound 14, of the solid dispersions of Reference Example 2b and Comparative Reference Example 10b and the sample of Comparative Reference Example 11b suspended in a 1% carboxymethylcellulose aqueous solution was orally administered to fasted male rats (8 weeks old, Crl:CD (SD), Japan Charles River Laboratories). A crystalline drug substance of Compound 14 was used as a control (Comparative Reference Example 12b). A collection time was 0.5, 1, 2, 4, 8, and 24 hours after administration, and about 300 μL of blood was collected at each time point from vena caudalis (n=3). The obtained blood was centrifuged at 1500×g, 4° C. for 15 minutes to obtain a plasma. The concentration of Compound 14 in the plasma was measured by HPLC (Shiseido Company, Limited and Hitachi High-Technologies Corporation). A time to reach the highest concentration in the plasma (Tmax), the highest concentration in the plasma (Cmax) and an area under the plasma concentration-time curve (AUC) were calculated from the change in the concentration in the obtained plasma. Here, values in the table are the mean value±standard deviation of three examples.

serum uric acid level [2] = settings: febuxostat 40 mg, case described in Non Patent Literature 3; first day of the administration (about 15 hours after the administration); cited from earlier work
plasma uric acid level = assay: Reference Example 15, plasma uric acid in oxonic acid-induced hyperuricemic rats, 28-day repeated administration; assay type: in vivo, oxonic acid-induced hyperuricemic rats (Crl:CD (SD)); settings: oral once a day for 28 days, non-fasting; Compound 14 0.3 mg/kg; Days 1, 7, 14, 21, 28
Description: Compound 14 suspended in a 1% aqueous methylcellulose solution was orally administered to oxonic acid-induced hyperuricemic rats at a dose of 0.3 mg/kg once a day for 28 days under non-fasting conditions. As a control, a 1% aqueous methylcellulose solution was used, and as a positive control, febuxostat was used.
As rats, male Crl:CD (SD) rats (produced by Charles River Laboratories Japan, Inc.) were used. The rats were purchased at the age of 6 weeks, and the administration was started at the age of 7 weeks.
Potassium oxonate was prepared by adding and suspending 10 g of potassium oxonate (Sigma-Aldrich Corp., Lot No. 03810 HD) to 200 mL of 1% methyl cellulose (1% MC) with a mixer. […]
The collection time points were set to before administration (1 hour before) and 2 and 6 hours after administration on Days 1, 7, 14, 21, and 28, and blood was collected in an amount of about 300 μL per time point from the tail vein (n=7). […] The concentration of uric acid in the plasma was measured by HPLC (Shiseido Co., Ltd., current OSAKA SODA).
To acquire the predose value and data for grouping, a 1% aqueous methylcellulose solution was orally administered to all rats 5 days before the start of administration, and the uric acid concentration in the plasma was measured according to the above-described method such as subcutaneous administration of potassium oxonate. […]

eyeball = assay: Example 4, measurement of concentration of various molecules in eyeball; assay type: in vivo, RCS rats; design: unit not given here; settings: Day 19 after 18 days oral administration
Description: (§1) Three week old RCS rats (CLEA Japan, Inc., male) were purchased and randomly divided into a control group and a Compound 14 administration group. From 3.5 weeks of age, control and Compound 14 were orally administered daily once a day for 18 days. To the control group, 1% methylcellulose (Metrose (SM-15) manufactured by Shin-Etsu Chemical Co., Ltd.) was administered, and to the Compound 14 administration group, a preparation in which a solid dispersion of Compound 14 described in “Formulation Example 1” described later was suspended in 1% methylcellulose was administered at a dose of 5 mg/100 g body weight (1 mg/100 g body weight as Compound 14) per administration. Because xanthine stones are likely to occur in rodents due to XOR inhibition, Uralyt-U combination powder (manufactured by Nippon Chemiphar Co., Ltd.) was administered to both groups in drinking water at a concentration of 1% (w/v) in order to prevent/reduce xanthine stones. On Day 19 after completion of administration for 18 days, eyeballs of both eyes were collected from both groups, and a tissue image was observed on one eyeball.
Concentrations of various molecules in one eyeball collected in Example 3 were measured. The eyeball stored at −80° C. was freeze-pulverized, a 5% perchloric acid solution in an amount of 2 times (w/w) was added, and the mixture was vortexed. The supernatant obtained by centrifugation at 15000 rpm and 4° C. for 5 minutes was neutralized with a 3 M potassium carbonate solution. The mixture was centrifuged again at 15000 rpm and 4° C. for 5 minutes, and the supernatant was equilibrated with 0.5 M sodium phosphate buffer to prepare an eyeball extraction solution. ATP, ADP, AMP, IMP, inosine, hypoxanthine, xanthine, uric acid, GTP, GDP, and GMP in the solution were measured by HPLC (HPLC: Shimadzu Corporation LC-20AD, Diode array detector: Shimadzu Corporation SPD-M20A), and the energy charge was calculated (Calculation formula: ([ATP]+½ [ADP])/([ATP]+[ADP]+[AMP])).

serum uric acid level [3] = assay: Reference Example 14, action of lowering serum uric acid level in healthy adult males; assay type: in vivo; settings: for maximum rate of decrease in a blood uric acid level: solid dispersion capsules of Formulation Example 1
Description: For comparative reference, the results are shown in FIG. 9 together with the result of a case described in Non Patent Literature 3 in which febuxostat (40 mg) was used.

[4] = system: MOVAS-1 cells having XOR activity; assay: Example 2, ATP enhancing action in presence of uncoupler (CCCP); assay type: cell-based; settings: 6 μM Compound 14, CCCP 10 μM, 30 minutes; versus control of the CCCP addition group
Description: MOVAS-1 cells having XOR activity were used for Examples. All examinations were performed at n=3 for each number of samples. The medium of MOVAS-1 cells in a confluent state (with D-MEM/low glucose/10% FBS/100 uM Oxionate) was divided into a medium for a CCCP addition group and a medium for a CCCP non-addition group, and 6 μM Compound 14 was added to the media. Nothing was added to the control of each group. Thereafter, to the CCCP addition group, CCCP was added so as to have a final concentration of 10 μM. After standing for 30 minutes, deproteinization was performed by PCA, and then ATP, ADP, and AMP concentrations were measured using HPLC.

RCS rats = assay: Example 3, suppressive action on retinal degeneration; assay type: in vivo; settings: oral once a day for 18 days, 1 mg/100 g body weight as Compound 14 (solid dispersion of Formulation Example 1); versus control, p<0.05, n=4
Description: as §1

serum = assay: Example 5, concentration of hypoxanthine and inosine in serum; assay type: in vivo, RCS rats; settings: Day 11 after 10 days daily oral administration
Description: In the same manner as in Example 3, to RCS rats, control or Compound 14 was orally administered daily for 10 days, and Uralyt-U combination powder (manufactured by Nippon Chemiphar Co., Ltd.) was administered in drinking water. On Day 11 after completion of administration for 10 days, blood was collected from both groups to prepare serum.

[5] = system: MOVAS-1 cells having XOR activity; assay: Example 1, ATP enhancing action in hypoxic condition; assay type: cell-based; settings: 1% oxygen, 4 hours
Description: MOVAS-1 cells having XOR activity were used for Examples. All examinations were performed at n=3 for each number of samples. The medium of MOVAS-1 cells in a confluent state (with D-MEM/low glucose/10% FBS/100 μM Oxionate) was divided into a medium for a hypoxanthine addition group and a medium for a hypoxanthine non-addition group, 50 μM hypoxanthine, and 6 μM Compound 14, 10 μM febuxostat, or 100 μM allopurinol were added to the medium of the hypoxanthine addition group, and 6 μM Compound 14, 10 μM febuxostat, or 100 μM allopurinol was added to the medium of the hypoxanthine non-addition group. For the control of each group, only 50 μM hypoxanthine was added to the hypoxanthine addition group, and nothing was added to the hypoxanthine non-addition group. Thereafter, the media were allowed to stand for 4 hours under mixed gas conditions of 1% oxygen, 5% carbon dioxide, and 94% nitrogen. After deproteinization by PCA, ATP, ADP and AMP concentrations were measured using HPLC.

[6] = Distribution of administered Compound 14 in the eyeball; assay type: in vivo; settings: Compound 14 administered to the rat

With N#Cc1cc(-c2nc3c(O)ncnc3s2)ccc1Oc1ccccc1 [Comparative Reference Example 11b, 2-(3-Cyano-4-phenoxyphenyl)-7-hydroxythiazolo[5,4-d]pyrimidine] the AUClast [1] was 15369 ± 7776 ng·h/mL and the Cmax [1] was 1724 ± 65 ng/mL.
In the case of Cc1nc(-c2ccc(OCC(C)C)c(C#N)c2)sc1C(=O)O [febuxostat, reference compound], the “maximum rate of decrease in a blood uric acid level” value (from here on “maximum rate of decrease”) (serum uric acid level [2]) is listed as “about 35%” and the “rate of change of the plasma uric acid level AUC (−1) to 6 with respect to the control group” value (plasma uric acid level) is listed as “no clear increase was observed”.
Work on N#Cc1cc(-c2nc3c(O)ncnc3s2)ccc1Oc1ccccc1 [Compound 14, 2-(3-Cyano-4-phenoxyphenyl)-7-hydroxythiazolo[5,4-d]pyrimidine] yielded a GTP (eyeball; NS p = 0.069 vs control) of 53.157 ± 8.352, a Hypoxanthine (eyeball; NS p = 0.081 vs control) of 8.450 ± 3.244 and a Xanthine (eyeball; NS p = 0.095 vs control) of 1.739 ± 0.590. It also gave a GMP (eyeball; p = 0. 000 vs control) of 2.458 ± 1.898, an IMP (eyeball; p = 0.002 vs control) of 3.640 ± 1.122 and an ADP (eyeball; p = 0.004 vs control) of 55.134 ± 7.253. For the same compound, the AMP (eyeball; p = 0.010 vs control) was 27.828 ± 8.547, the Uric acid (eyeball; p = 0.027 vs control) was 1.344 ± 0.444 and the ATP (eyeball; p = 0.033 vs control) was 175.809 ± 25.506. The GDP (eyeball; p = 0.036 vs control) was 8.115 ± 1.245, the Inosine (eyeball; p = 0.047 vs control) was 13.063 ± 4.690 and the “serum uric acid level over the administration period” value (serum uric acid level [3]; 40 mg once daily for 7 days, capsules containing micronized Compound 14) was “gradually decreased over time throughout the administration period”. For the same compound, the “maximum rate of decrease” value (serum uric acid level [3]; 80 mg once daily for 7 days, seventh day (about 8 hours after the administration)) was “about 30%”, the “maximum rate of decrease” value (serum uric acid level [3]; 80 mg once daily, first day of the administration (12 hours after the administration)) was “about 17%” and the total adenylate concentration [4] was “higher than the total adenylate concentration of the control group of the CCCP addition group”. For the same compound, the “thinning of the outer nuclear layer and the cone-rod layer in the retinal tissue” value (RCS rats) was “significantly suppressed”, the “increase of the concentration of hypoxanthine in the serum versus control” value (serum) was “about 7 times” and the “increase of the concentration of inosine in the serum versus control” value (serum) was “about 38 times”. For the same compound, the “Hypoxanthine, Serum (n = 4)” value (serum; p = 0.023 vs control) was 92.020 ± 47.670, the “Inosine, Serum (n = 4)” value (serum; p = 0.026 vs control) was 9.950 ± 6.280 and the “ATP enhancing action (ATP, ADP and AMP concentrations)” value ([5]; 6 μM Compound 14 versus 10 μM febuxostat or 100 μM allopurinol, with or without 50 μM hypoxanthine) was “exhibited effects at doses lower than febuxostat and allopurinol”. The “ATP enhancing action in hypoxic condition, hypoxanthine in combination” value ([5]; 50 μM hypoxanthine, 6 μM Compound 14 versus 10 μM febuxostat) was “significant difference between Compound 14 and febuxostat”, the “distribution in the eyeball” value [6] was “hardly distributed in the eyeball” and the “rate of change of the plasma uric acid level AUC (−1) to 6 with respect to the control group” value (plasma uric acid level) was “increased with repeated administration”.
N#Cc1cc(-c2nc3c(O)ncnc3s2)ccc1Oc1ccccc1 [Comparative Reference Example 12b, 2-(3-Cyano-4-phenoxyphenyl)-7-hydroxythiazolo[5,4-d]pyrimidine] showed an AUClast [1] of 1157 ± 261 ng·h/mL, a Cmax [1] of 239 ± 99 ng/mL and a Tmax [1] of 4.7 ± 3.1 h.
